A short description of data set [1]: Pharmacokinetic test in mice. In kind it is in vivo. The settings on record: mouse, plasma. Here is the method:
For the pharmacokinetic test in mice, 3 male ICR mice, 20 to 25 g, were used, fasted overnight, and administered by tail vein injection (1 mg/kg or 5 mg/kg). Blood was collected before the administration, and at 15 min, 30 min, 1 hour, 2 hours, 4 hours, 8 hours, and 24 hours after the administration. Another 3 mice were taken and administered by oral gavage (5 mg/kg), and blood was collected before the administration, and at 15 min, 30 min, 1 hour, 2 hours, 4 hours, 8 hours, and 24 hours after the administration. Blood samples were centrifuged at 6800 g at 2 to 8° C. for 6 min, and plasma was collected and stored at −80° C. The plasma at each time point was taken and added with an acetonitrile solution containing internal standard in 3 to 5 times the amount. The mixture was vortexed and mixed for 1 min, and centrifuged at 13,000 rpm at 4° C. for 10 min. The supernatant was collected, added with water in 3 times the amount, and mixed. An appropriate amount of the mixture was taken for LC-MS/MS analysis. The main pharmacokinetic parameters were analyzed using WinNonlin 7.0 software with non-compartmental model.

Another data set deals with A-431 cells. As to the kind of experiment: Inhibition of A-431 cell proliferation. In kind it is cell-based. Conditions: Homo sapiens, 96 h, incubated 4 days. Here is the method:
(§1) Human cutaneous squamous cell carcinoma cell A-431 (ATCC, CRL-1555) and actinic keratosis patient-derived cell HT 297.T (ATCC, CRL-7782) proliferation assays were used to detect the inhibitory effect of small molecular compounds on cell proliferation.
(§2) A-431 cells and HT 297.T cells were cultured in DMEM medium containing 10% fetal bovine serum and grown at 37° C. in a 5% CO2 incubator. Cells on logarithmic phase were seeded into a 96-well cell culture plate at 1000 cells/well, 100 μL per well, and then cultured overnight at 37° C. in a 5% CO2 incubator. The next day, 100 μL of gradient-diluted 2× test compound solution was added to each well, with DMSO serving as a positive control, and 10 μM staurosporine (Aladdin, S102392) was set as a negative control group. After the addition of the compounds, the culture plate was incubated for another 4 days at 37° C. in a 5% CO2 incubator. After incubation, the Steady-Glo® luciferase assay system (Promega, G9243) was used according to the supplier's instructions to measure the fluorescence signal value on the Envision 2104 Multilabel Reader. The inhibition rate was calculated by the following formula, then the curve was plotted with the Log value of the inhibitor concentration as the X-axis and the inhibition rate as the Y-axis, and the IC50 was calculated using Graphpad 8.0.
(§3) Inhibition %=(positive control group signal−test well signal)/(positive control group signal−negative control group signal)*100

The test system of another data set is HT 297.T cells. Nature of the data set: Inhibition of HT 297.T cell proliferation. Conditions: Homo sapiens, 96 h, incubated 4 days. In kind it is cell-based. Here is the method:
as §1, §2, §3

Data set [2] is described as follows: Human liver microsome stability test. It counts as in vitro ADME. Conditions: human liver microsomes (Corning), NADPH, 37° C. Here is the method:
The human liver microsome stability test was performed by incubating the compound and human liver microsomes in vitro. First, the compound to be tested was prepared as a 10 mM stock solution in DMSO solvent, and then the compound was diluted to 0.5 mM with acetonitrile. Human liver microsomes (Corning) were diluted with PBS into a microsome/buffer solution, and the solution was used to dilute 0.5 mM compound into a working solution, in which the concentration of the compound was 1.5 μM, and the concentration of human liver microsomes was 0.75 mg/mL. A deep-well plate was taken, 30 μL of the working solution was added per well, and then 15 μL of pre-heated 6 mM NADPH solution was added thereto to initiate a reaction, and the reaction was incubated at 37° C. At 0 min, 5 min, 15 min, 30 min, and 45 min of the incubation, 135 μL of acetonitrile was added to the corresponding wells to terminate the reaction. After the reaction was terminated with acetonitrile at the last time point of 45 min, the deep-well plate was vortexed and shaken for 10 min (600 rpm), and then centrifuged for 15 min. After centrifugation, the supernatant was collected, and added with purified water in a ratio of 1:1 to perform LC-MS/MS detection. A ratio of a peak area of compound to a peak area of internal standard at each time point was obtained, and the peak area ratios of the compound at 5 min, 15 min, 30 min, and 45 min were compared with the peak area ratio at 0 min to calculate the remaining percentage of the compound at each time point. T1/2 was calculated by using Graphpad 5 software.

The nature of data set [3]: Thermodynamic solubility test. It counts as physicochemical. Conditions: thermodynamic from solid. Here is the method:
Phosphate buffer saline (PBS) with a pH of 7.4, FeSSIF solution with a pH of 6.5, and FaSSGF solution with a pH of 1.6 were prepared. The compound was accurately weighed and added to prepared phosphate buffer saline with a pH of 7.4, FeSSIF solution with a pH of 6.5, and FaSSGF solution with a pH of 1.6 to prepare into a solution with a concentration of 4 mg/mL. The solution was shaken at a speed of 1000 rpm for 1 hour, and then incubated overnight at room temperature. The incubated solution was centrifuged at 12,000 rpm for 10 minutes to remove undissolved particles, and the supernatant was transferred to a new centrifuge tube. After the supernatant was appropriately diluted, an acetonitrile solution containing internal standard was added, and a standard curve prepared with the same matrix was used for quantification.

For another data set, the system named is tubulin monomer. As to the kind of experiment: Inhibition test of tubulin monomer polymerization (Tubulin polymerization assay kit). In kind it is biochemical. Conditions: maximum fluorescence signal of polymerization curve; 5 μL of 12.5 μM compound solution; 37° C.; higher value = lower inhibitory efficiency. Here is the method:
Tubulin polymerization assay kit (cytoskeleton, Cat. #BK011P) was used to conduct the compound inhibition test of tubulin monomer polymerization.
Before the test, the 96-well plate (Corning Costar, Cat. #3686) supplied with the kit was first placed in a microplate reader (MD, SpectraMax M5) and heated to 37° C., maintained for 10 minutes. The 96-well plate was then removed, and 5 μL of 12.5 μM compound solution or blank solution was added thereto. The 96-well plate was then placed back into the microplate reader and incubated at 37° C. for 1 minute to heat the compound solution to 37° C. The 96-well plate was removed and 50 μL of reaction mixture prepared according to the supplier's instructions was quickly added to each well, completing the sample addition within 1 minute to avoid the formation of bubbles. The 96-well plate was then immediately placed back into the microplate reader, shaken for 5 seconds, and using the Kinetic mode, continuous detection was carried out at 37° C. for 30 to 60 minutes under the conditions of excitation light at 360 nm and emission light at 420 nm, with detection every 30 seconds. Taking the detection time as the X-axis and the fluorescence signal value as the Y-axis, the tubulin monomer polymerization curve was obtained. As shown in FIG. 1 and Table 1, the larger the Vmax value and the higher the maximum fluorescence signal value of the polymerization curve, the lower the inhibitory efficiency of the compound.

[4] abbreviates: male ICR mice, intravenous injection 1 mg/kg.
The mark [5] stands for this setting: male ICR mice, intravenous injection 5 mg/kg.
Setting [6] is: male, ICR, mice, oral gavage 5 mg/kg.
Setting [7] is: FeSSIF solution, FeSSIF pH 6.5, incubated overnight at room temperature, read-out: Solubility FeSSIF (pH 6.5).
[8] abbreviates: phosphate buffer saline (PBS), aqueous buffer, PBS pH 7.4, incubated overnight at room temperature, read-out: Solubility PBS (pH 7.4).

In brackets after ≈: the same amount, converted by molar mass. Where two headings read alike, the source gives them in different places.

Regarding `O=C(Cc1ccc(-c2ccc(OCCN3C[C@H]4COC[C@H]4C3)cc2F)cn1)NCc1ccccc1` [Compound I-1, N-benzyl-2-(5-(2-fluoro-4-(2-((3aR,6aS)-tetrahydro-1H-furo[3,4-c]pyrrol-5(3H)-yl)ethoxy)phenyl)pyridin-2-yl)acetamide], in data set [1] (setting [4]), the area under the curve AUC(0-t) stood at 299 ng·h/mL and the clearance was 47.7 mL/min/kg. The compound further returned an IC50 in the data set on A-431 cells of 11.6 nM.

For `O=C(Cc1ccc(-c2ccc(OCCN3CCS(=O)(=O)CC3)cc2)cn1)NCc1ccccc1` [Compound I-3, N-benzyl-2-(5-(4-(2-(1,1-dioxidothiomorpholino)ethoxy)phenyl)pyridin-2-yl)acetamide], in the data set on A-431 cells, the IC50 was 14.3 nM.

As to `O=C(Cc1ccc(-c2ccc(OCCN3CC4(COC4)C3)cc2F)cn1)NCc1ccccc1` [Compound I-4, 2-(5-(4-(2-(2-oxa-6-azaspiro[3.3]heptan-6-yl)ethoxy)-2-fluorophenyl)pyridin-2-yl)-N-benzylacetamide], the IC50 in the data set with HT 297.T cells stood at 21.9 nM; with A-431 cells it was 8.67 nM. Besides, the half-life at 1 μM in data set [2] amounted to 47.5 min.

In the case of `Cc1cc(OCCN2CC3(COC3)C2)ccc1-c1ccc(CC(=O)NCc2ccccc2)nc1` [Compound I-5, 2-(5-(4-(2-(2-oxa-6-azaspiro[3.3]heptan-6-yl)ethoxy)-2-methylphenyl)pyridin-2-yl)-N-benzylacetamide], in data set [1] (setting [5]), the AUC(0-t) came out at 2630 ng·h/mL and the clearance is 32.7 mL/min/kg. In the data set with A-431 cells, this compound came in with an IC50 of 16.3 nM.

Take `O=C(Cc1ccc(-c2ccc(OCCN3CC4(C3)CS(=O)(=O)C4)cc2)cn1)NCc1ccccc1` [Compound I-18, N-benzyl-2-(5-(4-(2-(2,2-dioxido-2-thia-6-azaspiro[3.3]heptan-6-yl)ethoxy)phenyl)pyridin-2-yl)acetamide]: the IC50 with A-431 cells turned out to be 22.3 nM.

Regarding `C[C@H]1COCCN1CCOc1ccc(-c2ccc(CC(=O)NCc3ccccc3)nc2)c(F)c1` [Compound I-24A, (S)—N-benzyl-2-(5-(2-fluoro-4-(2-(3-methylmorpholino)ethoxy)phenyl)pyridin-2-yl)acetamide], the values for the AUC(0-t) in data set [1] (setting [6]) and in data set [1] (setting [5]) were 1090 ng·h/mL and 2520 ng·h/mL, respectively. The same compound yielded a Cmax in data set [1] (setting [6]) of 1190 ng/mL. For the same compound, in data set [1] (setting [5]), the clearance is 33.2 mL/min/kg. The results for the IC50 with HT 297.T cells and in the data set with A-431 cells were 8.13 nM and 6.74 nM, respectively.

For `O=C(Cc1ccc(-c2ccc(OCCNC3CN(C(=O)CC4CC4)C3)cc2)cn1)NCc1ccccc1` [Compound I-26, N-benzyl-2-(5-(4-(2-((1-(2-cyclopropylacetyl)azetidin-3-yl)amino)ethoxy)phenyl)pyridin-2-yl)acetamide], the half-life at 1 μM in data set [2] was determined as 42.8 min. Moreover, the solubility in data set [3] (setting [7]) was found to be 480 µg/mL (≈ 962 µM); in data set [3] (setting [8]), 22.4 µg/mL (≈ 45 µM). Also, in the data set with A-431 cells, half-maximal inhibition (IC50) required 13.7 nM. Moreover, the Maximum signal value in the data set with tubulin monomer was 408.

For the compound `N#Cc1cc(OCCN2CCOCC2)ccc1-c1ccc(CC(=O)NCc2ccccc2)nc1` [Compound I-27, N-benzyl-2-(5-(2-cyano-4-(2-morpholinoethoxy)phenyl)pyridin-2-yl)acetamide], the values for the solubility in data set [3] (setting [7]) and in data set [3] (setting [8]) were 833 µg/mL (≈ 1830 µM) and 85.7 µg/mL (≈ 188 µM), respectively. In the data set with A-431 cells, this compound yielded an IC50 of 3.1 nM. Moreover, the Maximum signal value in the data set with tubulin monomer stood at 0.

In the data set on A-431 cells, `Cc1cc(OCCN2C[C@H]3COC[C@H]3C2)cc(C)c1-c1ccc(CC(=O)NCc2ccccc2)nc1` [Compound I-29, N-benzyl-2-(5-(2,6-dimethyl-4-(2-((3aR,6aS)-tetrahydro-1H-furo[3,4-c]pyrrol-5(3H)-yl)ethoxy)phenyl)pyridin-2-yl)acetamide] showed an IC50 of 45.1 nM.

As to `O=C(Cc1ccc(-c2ccc(OCCN3C[C@H]4COC[C@H]4C3)cc2Cl)cn1)NCc1ccccc1` [Compound I-30, N-benzyl-2-(5-(2-chloro-4-(2-((3aR,6aS)-tetrahydro-1H-furo[3,4-c]pyrrol-5(3H)-yl)ethoxy)phenyl)pyridin-2-yl)acetamide], in data set [1] (setting [6]), the AUC(0-t) is 508 ng·h/mL and the Cmax amounted to 364 ng/mL. In data set [1] (setting [5]), this compound gave an AUC(0-t) of 852 ng·h/mL and a clearance of 97.2 mL/min/kg. This compound also yielded a half-life at 1 μM in data set [2] of 10.7 min. The same compound showed an IC50 in the data set with A-431 cells of 9.12 nM.

In the case of `C[C@@H]1COCCN1CCOc1ccc(-c2ccc(CC(=O)NCc3ccccc3F)nc2)c(F)c1` [Compound I-31, (R)-2-(5-(2-fluoro-4-(2-(3-methylmorpholino)ethoxy)phenyl)pyridin-2-yl)-N-(2-fluorobenzyl)acetamide], the IC50 with A-431 cells is 10.9 nM.

In the data set on A-431 cells, `C[C@H]1COCCN1CCOc1ccc(-c2ccc(CC(=O)NCc3ccccc3F)nc2)c(F)c1` [Compound I-32, (S)-2-(5-(2-fluoro-4-(2-(3-methylmorpholino)ethoxy)phenyl)pyridin-2-yl)-N-(2-fluorobenzyl)acetamide] showed an IC50 of 9.22 nM.

For the compound `Cc1cc(OCCN2C[C@H]3COC[C@H]3C2)ccc1-c1ccc(CC(=O)NCc2ccccc2F)nc1` [Compound I-33, N-(2-fluorobenzyl)-2-(5-(2-methyl-4-(2-((3aR,6aS)-tetrahydro-1H-furo[3,4-c]pyrrol-5(3H)-yl)ethoxy)phenyl)pyridin-2-yl)acetamide], the IC50 in the data set with A-431 cells turned out to be 49.4 nM.

`O=C(Cc1ccc(-c2ccc(OCCN3C[C@H]4COC[C@H]4C3)cc2Cl)cn1)NCc1ccccc1F` [Compound I-34, 2-(5-(2-chloro-4-(2-((3aR,6aS)-tetrahydro-1H-furo[3,4-c]pyrrol-5(3H)-yl)ethoxy)phenyl)pyridin-2-yl)-N-(2-fluorobenzyl)acetamide] came in with a concentration for half-maximal inhibition (IC50) with A-431 cells of 14.8 nM.

For the compound `O=C(Cc1ccc(-c2ccc(OCCN3CCOCC3)cc2)cn1)NCc1ccccc1` [Control compound I, Tirbanibulin, reference compound], in data set [1] (setting [5]), the AUC(0-t) is 5250 ng·h/mL and the clearance is 15.8 mL/min/kg.
